From patent US8933079B2, “Pyridone and pyridazinone derivatives as anti-obesity agents” (Boehringer Ingelheim International GmbH, priority 2012, dated 2015) come the findings set out here.

One series deals with hMCH-1R (Homo sapiens (Human), UniProt Q99705). Kind of series: MCH-1 receptor binding test (125I-MCH binding to hMCH-1R transfected cell membranes). Particulars: for IC50: competition with 100 pM 125I-MCH, membranes of CHO/Galpha16 cells stably transfected with hMCH-1R.
The subject of a further series is human hepatocytes. Kind of series: Metabolic degradation in human hepatocytes (intrinsic clearance). In kind it is in vitro ADME. To be noted: human hepatocyte suspension, 1 μM test compound, 5% human serum, 6 h. The protocol: Determination of Metabolic Degradation in Human Hepatocytes for Compounds of the Invention
The metabolic degradation of the test compound is determined in a hepatocyte suspension. Hepatocytes (typically cryopreserved) are incubated in an appropriate buffer system (e.g. Dulbecco's modified eagle medium plus 3.5 μg glucagon/500 mL, 2.5 mg insulin/500 mL and 3.75 mg/500 mL hydrocortison) containing 5% human serum.
Following a (typically) 30 min preincubation in an incubator (37° C., 10% CO2), 5 μl of test compound solution (80 μM; from 2 mM in DMSO stock solution diluted 1:25 with medium) are added into 395 μl hepatocyte suspension (cell density in the range 0.25-5 Mio cells/mL, typically 1 Mio cells/mL; final concentration of test compound 1 μM, final DMSO concentration 0.05%). The cells are incubated for six hours (incubator, orbital shaker) and samples (25 μl) are taken at 0, 0.5, 1, 2, 4 and 6 hours. Samples are transferred into acetonitrile and pelleted by centrifugation (5 min). The supernatant is transferred to a new 96-deepwell plate, evaporated under nitrogen and resuspended.
Decline of parent compound is analyzed by HPLC-MS/MS.
CLint is calculated as follows CL_[…]=Dose/AUC=(CO/CD)/(AUD+clast/k)×1000/60. C0: initial concentration in the incubation [μM], CD: cell density of vital cells [10e6 cells/mL], AUD: area under the data [μM×h], clast: concentration of last data point [μM], k: slope of the regression line for parent decline [h−1].

Sequence of hMCH-1R (Q99705 whole entry): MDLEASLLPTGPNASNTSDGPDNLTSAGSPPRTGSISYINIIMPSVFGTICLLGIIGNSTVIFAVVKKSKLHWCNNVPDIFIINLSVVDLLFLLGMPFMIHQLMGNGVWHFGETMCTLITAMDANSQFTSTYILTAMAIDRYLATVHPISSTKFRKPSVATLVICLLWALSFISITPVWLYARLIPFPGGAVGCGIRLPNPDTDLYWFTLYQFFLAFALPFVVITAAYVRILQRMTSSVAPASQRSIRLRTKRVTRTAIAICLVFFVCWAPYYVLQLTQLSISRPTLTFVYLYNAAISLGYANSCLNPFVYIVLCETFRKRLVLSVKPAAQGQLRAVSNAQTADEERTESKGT

Regarding `Cc1cc(CN(C)C)ccc1C(=O)Cn1ccc(OCc2ccccc2)cc1=O` [Example 1.8, 4-Benzyloxy-1-[2-(4-dimethylaminomethyl-2-methyl-phenyl)-2-oxo-ethyl]-1H-pyridin-2-one], the IC50 on hMCH-1R amounted to 0.017 µM. The CLint in the series with human hepatocytes is recorded as 3.9 μL/min/10e6 cells.

Take `Cc1cc(CN(C)C)ccc1C(=O)Cn1ccc(OCc2ccc(Cl)cn2)cc1=O` [Example 3.9, 4-(5-Chloro-pyridin-2-ylmethoxy)-1-[2-(4-dimethylaminomethyl-2-methyl-phenyl)-2-oxo-ethyl]-1H-pyridin-2-one]: at hMCH-1R, the half-inhibitory concentration (IC50) was 0.032 µM. Besides, the CLint with human hepatocytes was determined as 13.8 μL/min/10e6 cells.

For `Cc1cc(CN(C)C)ccc1C(=O)Cn1ccc(OCc2ccc(Br)cn2)cc1=O` [Example 4.1, 4-(5-Bromo-pyridin-2-ylmethoxy)-1-[2-(4-dimethylaminomethyl-2-methyl-phenyl)-2-oxo-ethyl]-1H-pyridin-2-one], the IC50 on hMCH-1R came out at 0.017 µM. In the series on human hepatocytes, the CLint turned out to be 20.7 μL/min/10e6 cells.

`Cc1cc(CN(C)C)ccc1C(=O)Cn1ncc(OCc2ccccc2)cc1=O` [Example 5.2, 5-Benzyloxy-2-[2-(4-dimethylaminomethyl-2-methyl-phenyl)-2-oxo-ethyl]-2H-pyridazin-3-one] showed a concentration for half-maximal inhibition (IC50) at hMCH-1R of 0.009 µM. In addition, the CLint in the series on human hepatocytes was 4.8 μL/min/10e6 cells.

For `Cc1cc(CN(C)C)ccc1C(=O)Cn1ncc(OCc2ccc(F)cn2)cc1=O` [Example 6.5], the IC50 at hMCH-1R came out at 0.05 µM. In the series on human hepatocytes, the CLint is given as 1.7 μL/min/10e6 cells.

For the molecule `Cc1cc(CN(C)C)ccc1C(=O)Cn1ncc(OCc2ccc(Br)cn2)cc1=O` [Example 8.3, 5-(5-Bromo-pyridin-2-ylmethoxy)-2-[2-(4-dimethylaminomethyl-2-methyl-phenyl)-2-oxo-ethyl]-2H-pyridazin-3-one], the IC50 at hMCH-1R came to 0.016 µM. Also, in the series with human hepatocytes, the CLint came to 11.5 μL/min/10e6 cells.

For the molecule `Cc1cc(CN2CCC(O)CC2)ccc1C(=O)Cn1ncc(OCc2ccc(Br)cn2)cc1=O` [Example 8.9, 5-(5-Bromo-pyridin-2-ylmethoxy)-2-{2-[4-(4-hydroxy-piperidin-1-ylmethyl)-2-methyl-phenyl]-2-oxo-ethyl}-2H-pyridazin-3-one], the IC50 at hMCH-1R came out at 0.018 µM.

As for `CNCc1ccc(C(=O)Cn2ncc(OCc3ccc(Br)cn3)cc2=O)c(C)c1` [Example 8.10, 5-(5-Bromo-pyridin-2-ylmethoxy)-2-[2-(2-methyl-4-methylaminomethyl-phenyl)-2-oxo-ethyl]-2H-pyridazin-3-one], the IC50 on hMCH-1R was found to be 0.025 µM.

Take `Cc1cc(CN2CCC[C@H]2CO)ccc1C(=O)Cn1ncc(OCc2ccc(Br)cn2)cc1=O` [Example 8.11]: the IC50 at hMCH-1R is 0.021 µM.

The molecule `COc1ccc(COc2cnn(CC(=O)c3ccc(CN(C)C)cc3C)c(=O)c2)nc1` [Example 9.1, 2-[2-(4-Dimethylaminomethyl-2-methyl-phenyl)-2-oxo-ethyl]-5-(5-methoxy-pyridin-2-ylmethoxy)-2H-pyridazin-3-one] came in with an IC50 on hMCH-1R of 0.028 µM. The CLint in the series on human hepatocytes is 3.3 μL/min/10e6 cells.

Turning to `COc1ccc(COc2cnn(CC(=O)c3ccc(CN(C)C)cc3)c(=O)c2)nc1` [Example 9.1c, 2-[2-(4-Dimethylaminomethyl-phenyl)-2-oxo-ethyl]-5-(5-methoxy-pyridin-2-ylmethoxy)-2H-pyridazin-3-one, reference compound], the CLint with human hepatocytes was 27 μL/min/10e6 cells.

In turn, `CN(C)Cc1ccc(C(=O)Cn2ccc(OCc3ccc(Cl)cn3)cc2=O)cc1` [Example 9.2 in WO2009/103478, reference compound] came in with a CLint with human hepatocytes of 68.8 μL/min/10e6 cells.

In turn, `COc1ccc(COc2cnn(CC(=O)c3ccc(CN4CCC(O)CC4)cc3C)c(=O)c2)nc1` [Example 9.2, 2-{2-[4-(4-Hydroxy-piperidin-1-ylmethyl)-2-methyl-phenyl]-2-oxo-ethyl}-5-(5-methoxy-pyridin-2-ylmethoxy)-2H-pyridazin-3-one] gave an IC50 at hMCH-1R of 0.034 µM.

`COc1ccc(COc2cnn(CC(=O)c3ccc(CN4CCCC4)cc3C)c(=O)c2)nc1` [Example 9.3, 5-(5-Methoxy-pyridin-2-ylmethoxy)-2-[2-(2-methyl-4-pyrrolidin-1-ylmethyl-phenyl)-2-oxo-ethyl]-2H-pyridazin-3-one] came in with an IC50 on hMCH-1R of 0.025 µM.

`CNCc1ccc(C(=O)Cn2ncc(OCc3ccc(OC)cn3)cc2=O)c(C)c1` [Example 9.4, 5-(5-Methoxy-pyridin-2-ylmethoxy)-2-[2-(2-methyl-4-methylaminomethyl-phenyl)-2-oxo-ethyl]-2H-pyridazin-3-one] registered an IC50 on hMCH-1R of 0.02 µM.

For `CCNCc1ccc(C(=O)Cn2ncc(OCc3ccc(OC)cn3)cc2=O)c(C)c1` [Example 9.5, 2-[2-(4-Ethylaminomethyl-2-methyl-phenyl)-2-oxo-ethyl]-5-(5-methoxy-pyridin-2-ylmethoxy)-2H-pyridazin-3-one], at hMCH-1R, the half-inhibitory concentration (IC50) is 0.024 µM.

The molecule `COc1ccc(COc2cnn(CC(=O)c3ccc(C(C)N(C)C)cc3C)c(=O)c2)nc1` (centres unmarked) [Example 10.1, 2-{2-[4-(1-Dimethylamino-ethyl)-2-methyl-phenyl]-2-oxo-ethyl}-5-(5-methoxy-pyridin-2-ylmethoxy)-2H-pyridazin-3-one] had an IC50 at hMCH-1R of 0.02 µM.

With `CNC(C)c1ccc(C(=O)Cn2ncc(OCc3ccc(OC)cn3)cc2=O)c(C)c1` (centres unmarked) [Example 10.2, 5-(5-Methoxy-pyridin-2-ylmethoxy)-2-{2-[2-methyl-4-(1-methylamino-ethyl)-phenyl]-2-oxo-ethyl}-2H-pyridazin-3-one], the IC50 at hMCH-1R was determined as 0.022 µM.

Regarding `COc1ccc(COc2ccn(CC(=O)c3ccc(CN4CCC(O)CC4)cc3C)c(=O)c2)nc1` [Example 11.1, 1-{2-[4-(4-Hydroxy-piperidin-1-ylmethyl)-2-methyl-phenyl]-2-oxo-ethyl}-4-(5-methoxy-pyridin-2-ylmethoxy)-1H-pyridin-2-one], the IC50 on hMCH-1R was found to be 0.053 µM.

The molecule `CN(C)Cc1ccc(C(=O)Cn2ccc(OCc3ccc(Br)cn3)cc2=O)cc1` [Example 11.2 in WO2009/103478, reference compound] had a CLint with human hepatocytes of 66.1 μL/min/10e6 cells.

Consider `COc1ccc(COc2ccn(CC(=O)c3ccc(CN(C)C)cc3C)c(=O)c2)nc1` [Example 11.2], for which the IC50 on hMCH-1R was found to be 0.057 µM.

Turning to `COc1ccc(COc2ccn(CC(=O)c3ccc(CN4CCCC4)cc3C)c(=O)c2)nc1` [Example 11.3], the IC50 on hMCH-1R is 0.026 µM.

In the case of `CCNCc1ccc(C(=O)Cn2ccc(OCc3ccc(OC)cn3)cc2=O)c(C)c1` [Example 11.4], on hMCH-1R, the IC50 was 0.054 µM.

`CN(C)Cc1ccc(C(=O)Cn2ncc(OCc3ccc(Br)cn3)cc2=O)cc1` [Example 12.2 in WO2009/103478, reference compound] yielded a CLint in the series with human hepatocytes of 57.6 μL/min/10e6 cells.

As to `CN(C)Cc1ccc(C(=O)Cn2ccc(OCc3ccccc3)cc2=O)cc1` [Example 29.8 in WO2008/22979, reference compound], in the series on human hepatocytes, the CLint came out at 24.3 μL/min/10e6 cells.

In the series with human hepatocytes, `CN(C)Cc1ccc(C(=O)Cn2ncc(OCc3ccccc3)cc2=O)cc1` [Example 32.7 in WO2008/22979, reference compound] showed a CLint of 16.8 μL/min/10e6 cells.

For `CN(C)Cc1ccc(C(=O)Cn2ncc(OCc3ccc(F)cn3)cc2=O)cc1` [Example 33.5 in WO2008/22979, reference compound], the CLint in the series with human hepatocytes is given as 10.0 μL/min/10e6 cells.

Consider `CSCC[C@@H]1NC(=O)[C@@H](NC(=O)[C@H](CCCNC(=N)N)NC(=O)[C@H](CC(C)C)NC(=O)[C@H](CCSC)NC(=O)[C@H](CC(=O)O)NC(=O)[C@H](Cc2ccccc2)NC(=O)[C@@H](N)CC(=O)O)CSSC[C@@H](C(=O)N[C@@H](Cc2c[nH]c3ccccc23)C(=O)N[C@@H](CCC(N)=O)C(=O)N[C@H](C(=O)O)C(C)C)NC(=O)[C@@H]2CCCN2C(=O)[C@H](CCCNC(=N)N)NC(=O)[C@H](Cc2ccc(O)c(I)c2)NC(=O)[C@H](C(C)C)NC(=O)[C@H](CCCNC(=N)N)NC(=O)CNC(=O)[C@H](CC(C)C)NC1=O` [^125I-MCH, reference compound], for which, on hMCH-1R (125I-MCH on hMCH-1R membranes, read-out: KD value of the radioligand), the Kd is 0.000156 µM.
